Experimental data taken from ChEMBL document CHEMBL3124749, “Synthesis, biological evaluation and molecular modeling study of novel tacrine-carbazole hybrids as potential multifunctional agents for the treatment of Alzheimer's disease” (Eur J Med Chem, 2014).
The source made the active and inactive calls. The calls are words filed in the database; no cut-off is given here.

Assays:
NG108-15 [1] = assay: Neuroprotective activity against H2O2-induced oxidative stress in mouse/rat NG108-15 cells assessed as increase in cell viability at 1 uM incubated for 2 hrs prior to H2O2 challenge for 2 hrs by MTT assay; format: functional, cell-based
C6 = assay: cells; details: Rattus norvegicus, C6, 24 h, read-out: Activity
Description: Neuroprotective activity against Abeta1-42 peptide-induced neurotoxicity in rat C6 cells assessed as cell viability at 100 uM after 24 hrs by MTT assay

NG108-15 [2] = assay: cells; details: Murinae, NG108-15, read-out: Activity
Description: Neuroprotective activity against H2O2-induced oxidative stress in mouse/rat NG108-15 cells assessed as cell viability at 100 uM incubated for 2 hrs prior to H2O2 challenge for 2 hrs by MTT assay

Cholinesterase = Cholinesterase (Homo sapiens, UniProt P06276)
Description: Inhibition of BuChE in human serum using butyrylthiocholine iodide as substrate measured every 30s for 5 mins by Ellman's spectrophotometric method

Mus musculus [3] = assay: Inhibition of scopolamine-induced cognitive deficit in ICR mouse assessed as spontaneous alternation behaviour at 50 micromol/kg, ip administered 1 hr prior to scopolamine challenge measured after 30 mins by Y-maze test (reference value: 40.22 +/-3.54%); format: functional; design: scale not given: the % may be the effect or the level left
Mus musculus [4] = assay: Inhibition of scopolamine-induced cognitive deficit in ICR mouse assessed as spontaneous alternation behaviour at 25 micromol/kg, ip administered 1 hr prior to scopolamine challenge measured after 30 mins by Y-maze test (reference value: 40.22 +/-3.54%); format: functional; design: scale not given: the % may be the effect or the level left
Mus musculus [5] = assay: Inhibition of scopolamine-induced cognitive deficit in ICR mouse assessed as time spent swimming in Q1 quadrant at 50 micromol/kg, ip administered 1 hr prior to scopolamine challenge measured after 30 mins by morris water maze test (reference value: 11.76 +/-0.49s); format: functional
Mus musculus [6] = assay: Inhibition of scopolamine-induced cognitive deficit in ICR mouse assessed as time spent swimming in Q1 quadrant at 25 micromol/kg, ip administered 1 hr prior to scopolamine challenge measured after 30 mins by morris water maze test (reference value: 11.76 +/-0.49s); format: functional
NG108-15 [7] = assay: Neuroprotective activity against H2O2-induced oxidative stress in mouse/rat NG108-15 cells assessed as increase in cell viability at 10 uM incubated for 2 hrs prior to H2O2 challenge for 2 hrs by MTT assay; format: functional, cell-based

Cholinesterase, sequence (P06276 whole entry): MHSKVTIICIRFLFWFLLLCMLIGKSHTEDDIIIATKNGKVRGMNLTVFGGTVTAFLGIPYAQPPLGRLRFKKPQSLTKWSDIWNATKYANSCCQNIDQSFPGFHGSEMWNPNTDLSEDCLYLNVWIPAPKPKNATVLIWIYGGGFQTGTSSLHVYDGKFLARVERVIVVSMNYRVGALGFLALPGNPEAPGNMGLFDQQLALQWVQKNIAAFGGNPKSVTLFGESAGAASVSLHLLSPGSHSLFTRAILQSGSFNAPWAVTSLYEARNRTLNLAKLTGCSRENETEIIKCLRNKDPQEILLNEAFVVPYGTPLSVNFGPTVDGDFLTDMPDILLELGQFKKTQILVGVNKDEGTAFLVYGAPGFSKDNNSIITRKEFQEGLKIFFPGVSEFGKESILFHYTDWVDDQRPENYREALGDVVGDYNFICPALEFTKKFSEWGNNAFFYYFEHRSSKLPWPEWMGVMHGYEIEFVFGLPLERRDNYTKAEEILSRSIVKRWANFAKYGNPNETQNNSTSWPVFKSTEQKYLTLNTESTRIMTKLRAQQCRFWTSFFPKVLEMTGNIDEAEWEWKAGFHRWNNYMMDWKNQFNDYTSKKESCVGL

SMILES	Activity (NG108-15 [1])	viability at 100 µM (C6)	viability at 100 µM (NG108-15 [2])	IC50 (Cholinesterase)	Activity (Mus musculus [3])	Activity (Mus musculus [4])	Time (Mus musculus [5])	Time (Mus musculus [6])	Activity (NG108-15 [7])
COc1ccc2c(c1)[nH]c1c(CC=C(C)C)c(O)c(/C=N/CCCNc3c4c(nc5ccccc35)CCCC4)cc12	Active	63%	74.7%						
CC(C)=CCc1c(O)c(C=O)cc2c1[nH]c1ccccc12 [HEPTAPHYLLINE]			59.8%	> 100 µM					
COc1ccc2c(c1)[nH]c1c(CC=C(C)C)c(O)c(C=O)cc12			65.5%	> 100 µM					
COc1ccc2c(c1)[nH]c1c(CC=C(C)C)c(O)c(/C=N/CCCCCNc3c4c(nc5ccccc35)CCCC4)cc12	Active	66.3%	78.4%	52.1 µM	59.8%	53.88%	17.86 s	17.21 s	
CC(C)=CCc1c(O)c(/C=N/CCCCCNc2c3c(nc4ccccc24)CCCC3)cc2c1[nH]c1ccccc12		59.4%	68.8%	19.4 µM					Active
